The test deals with P388 leukemia ip, CD2F1 mice, survival T/C. As to the kind of experiment: NCI In Vivo Anticancer Drug Screen. Data for tumor model P388 Leukemia (intraperitoneal) in CD2F1 (CDF1) mice. The note with it: endpoint: median survival time, higher = longer survival. The procedure, abridged:
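Mice carrying the transplanted tumor received test compound or vehicle. Survival was recorded in each group, and the value is the treated-group measurement divided by that of the vehicle-treated control group.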

Setting [1] is: dose: 50.0 mg/kg/injection, schedule: Q01DX005 (ip), vehicle: saline with Tween-80.
Setting [2] is: dose: 100.0 mg/kg/injection, schedule: Q01DX005 (ip), vehicle: saline with Tween-80.
Setting [3] is: dose: 200.0 mg/kg/injection, schedule: Q01DX005 (ip), vehicle: saline with Tween-80.
[4] abbreviates: dose: 50.0 mg/kg/injection, schedule: Q01DX009 (ip), vehicle: Klucel (hydroxypropylcellulose) (HPC).
Where [5] appears, read: dose: 100.0 mg/kg/injection, schedule: Q01DX009 (ip), vehicle: Klucel (hydroxypropylcellulose) (HPC).
Where [6] appears, read: dose: 60.0 mg/kg/injection, schedule: Q01DX005 (ip), vehicle: Klucel (hydroxypropylcellulose) (HPC).
Where [7] appears, read: dose: 120.0 mg/kg/injection, schedule: Q01DX005 (ip), vehicle: Klucel (hydroxypropylcellulose) (HPC).
Where [8] appears, read: dose: 50.0 mg/kg/injection, schedule: Q01DX009 (ip), vehicle: saline with Tween-80.
The mark [9] stands for this setting: dose: 100.0 mg/kg/injection, schedule: Q01DX009 (ip), vehicle: saline with Tween-80.
Setting [10] is: dose: 200.0 mg/kg/injection, schedule: Q01DX009 (ip), vehicle: saline with Tween-80.
Where [11] appears, read: dose: 50.0 mg/kg/injection, schedule: Q01DX005 (ip), vehicle: Klucel (hydroxypropylcellulose) (HPC).
Where [12] appears, read: dose: 100.0 mg/kg/injection, schedule: Q01DX005 (ip), vehicle: Klucel (hydroxypropylcellulose) (HPC).
Where [13] appears, read: dose: 50.0 mg/kg/injection, schedule: Q01DX009 (ip), vehicle: saline.

SMILES strings stand for the structures. Values joined by “and” are separate entries in the source; they are usually repeats but may differ in a detail not shown here. Identical values can stand only once. Inconclusive results and toxic doses are left out.

In the case of `CC[C@]1(O)Cc2c(O)c3c(c(O)c2[C@@H](OC2CC(N)C(O)C(C)O2)C1)C(=O)c1c(OC)cccc1C3=O` (stereo not given in full), the T/C was 117 % of control (dose: 1.2 mg/kg/injection, schedule: Q04DX003 (ip), vehicle: water); 151 % of control and 169 % of control (dose: 1.56 mg/kg/injection, schedule: Q01DX009 (ip), vehicle: water); 119 % of control (dose: 2.4 mg/kg/injection, schedule: Q04DX003 (ip), vehicle: water); 156 % of control and 163 % of control (dose: 3.13 mg/kg/injection, schedule: Q01DX009 (ip), vehicle: water); 95 % of control (dose: 6.25 mg/kg/injection, schedule: Q01DX009 (ip), vehicle: water); 103 % of control (dose: 37.5 mg/kg/injection, schedule: Q04DX003 (ip), vehicle: water).
For `COc1ccc(S(=O)(=O)N/N=C/c2cc([N+](=O)[O-])ccc2O)cc1`, the T/C is, setting by setting: under setting [1], 101 % of control; under setting [2], 107 % of control; under setting [3], 119 % of control.
Consider `Cc1cc(C)c(S(=O)(=O)Sc2nnnn2-c2ccccc2)c(C)c1`, for which the T/C reads like this: under setting [4], 100 % of control; under setting [5], 105 % of control; (dose: 200.0 mg/kg/injection, schedule: Q01DX009 (ip), vehicle: Klucel (hydroxypropylcellulose) (HPC)) 95 % of control.
As for `O=C1/C(=C/N2CCN(c3ccccc3)CC2)Cc2c(F)cccc21`, the T/C (dose: 100.0 mg/kg/injection, schedule: Q04DX003 (ip), vehicle: Klucel (hydroxypropylcellulose) (HPC)) is 100 % of control; the T/C (dose: 200.0 mg/kg/injection, schedule: Q04DX003 (ip), vehicle: Klucel (hydroxypropylcellulose) (HPC)) was 97 % of control; the T/C (dose: 400.0 mg/kg/injection, schedule: Q04DX003 (ip), vehicle: Klucel (hydroxypropylcellulose) (HPC)) is 100 % of control.
In the case of `COC1(OC)C(c2ccccc2)C(C#N)(C#N)C1(OC)OC` (stereo not given), the T/C reads like this: under setting [6], 102 % of control; under setting [7], 100 % of control; (dose: 240.0 mg/kg/injection, schedule: Q01DX005 (ip), vehicle: Klucel (hydroxypropylcellulose) (HPC)) 99 % of control.
For the compound `CCCCCCCC(=O)OC(C)C1/C=C/C=C\C(=O)O[C@@H]2C[C@H]3OC4C5OC5(C)CCC4(COC(=O)C4O[C@@]4(C)C(OC(=O)CCCCCCC)CO1)[C@]2(C)[C@]31CO1` (stereo not given in full), the T/C (dose: 1.25 mg/kg/injection, schedule: Q01DX009 (ip), vehicle: Klucel (hydroxypropylcellulose) (HPC)) is 102 % of control; the T/C (dose: 2.5 mg/kg/injection, schedule: Q01DX009 (ip), vehicle: Klucel (hydroxypropylcellulose) (HPC)) is 106 % of control; the T/C (dose: 5.0 mg/kg/injection, schedule: Q01DX009 (ip), vehicle: Klucel (hydroxypropylcellulose) (HPC)) is 99 % of control and 106 % of control; the T/C (dose: 10.0 mg/kg/injection, schedule: Q01DX009 (ip), vehicle: Klucel (hydroxypropylcellulose) (HPC)) is 98 % of control and 101 % of control; the T/C (dose: 20.0 mg/kg/injection, schedule: Q01DX009 (ip), vehicle: Klucel (hydroxypropylcellulose) (HPC)) was 110 % of control; the T/C (dose: 40.0 mg/kg/injection, schedule: Q01DX005 (ip), vehicle: Klucel (hydroxypropylcellulose) (HPC)) was 90 % of control. Further, the T/C runs as follows: (dose: 40.0 mg/kg/injection, schedule: Q01DX009 (ip), vehicle: Klucel (hydroxypropylcellulose) (HPC)) 99 % of control; (dose: 80.0 mg/kg/injection, schedule: Q01DX005 (ip), vehicle: Klucel (hydroxypropylcellulose) (HPC)) 90 % of control; (dose: 150.0 mg/kg/injection, schedule: Q01DX005 (ip), vehicle: Klucel (hydroxypropylcellulose) (HPC)) 91 % of control; (dose: 160.0 mg/kg/injection, schedule: Q01DX005 (ip), vehicle: Klucel (hydroxypropylcellulose) (HPC)) 108 % of control; (dose: 300.0 mg/kg/injection, schedule: Q01DX005 (ip), vehicle: Klucel (hydroxypropylcellulose) (HPC)) 100 % of control.
With `Clc1cccc2c(-c3ccccc3)c3cccc(Cl)c3cc12`, the T/C reads like this: under setting [8], 101 % of control; under setting [9], 97 % of control; under setting [10], 96 % of control.
As to `Cc1nc(N)[nH]c(=O)c1CCCCC#N`, the T/C is, setting by setting: under setting [6], 104 % of control; under setting [7], 104 % of control.
`COc1cccc(/C=C/c2cc3c(cc2Br)OCO3)c1`: the T/C under setting [11] is 102 % of control; the T/C under setting [12] is 108 % of control; the T/C (dose: 200.0 mg/kg/injection, schedule: Q01DX005 (ip), vehicle: Klucel (hydroxypropylcellulose) (HPC)) was 101 % of control.
Regarding `CC(C)(C)CC(C)(C)c1ccc(O)cc1O`, the T/C reads like this: (dose: 12.5 mg/kg/injection, schedule: Q04DX003 (ip), vehicle: saline with Tween-80) 110 % of control; (dose: 25.0 mg/kg/injection, schedule: Q04DX003 (ip), vehicle: saline with Tween-80) 105 % of control; (dose: 50.0 mg/kg/injection, schedule: Q04DX003 (ip), vehicle: saline with Tween-80) 120 % of control.
Take `CCC(=O)NS(=O)(=O)c1cccnc1Nc1c(Cl)cccc1Cl`: the T/C was 96 % of control under setting [13]; 96 % of control (dose: 100.0 mg/kg/injection, schedule: Q01DX009 (ip), vehicle: saline); 100 % of control (dose: 200.0 mg/kg/injection, schedule: Q01DX009 (ip), vehicle: saline).
Consider `Nc1nc(-c2ccncc2)cc(-c2cc(-c3ccncc3)nc(N)n2)n1`, for which the T/C by setting is: (dose: 60.0 mg/kg/injection, schedule: Q01DX005 (ip), vehicle: saline) 102 % of control; (dose: 120.0 mg/kg/injection, schedule: Q01DX005 (ip), vehicle: saline) 96 % of control.
`Oc1c(Br)cc(Br)cc1/C=N/NC(=S)N/N=C/c1cc(Br)cc(Br)c1O`: the T/C (dose: 12.5 mg/kg/injection, schedule: Q01DX009 (ip), vehicle: distilled water + Tween-80) was 97 % of control; the T/C (dose: 25.0 mg/kg/injection, schedule: Q01DX009 (ip), vehicle: distilled water + Tween-80) was 103 % of control and 108 % of control; the T/C (dose: 50.0 mg/kg/injection, schedule: Q01DX009 (ip), vehicle: distilled water + Tween-80) was 118 % of control.
In the case of `C1=CC2CC1CC2[P+](c1ccccc1)(c1ccccc1)c1ccccc1` (stereo not given), the T/C reads like this: (dose: 12.5 mg/kg/injection, schedule: Q01DX001 (ip), vehicle: saline) 102 % of control; (dose: 25.0 mg/kg/injection, schedule: Q01DX001 (ip), vehicle: saline) 115 % of control; (dose: 50.0 mg/kg/injection, schedule: Q01DX001 (ip), vehicle: saline) 97 % of control.
As for `O=C1NC2(CCCCC2)C(=O)N1CO`, the T/C by setting is: (dose: 25.0 mg/kg/injection, schedule: Q01DX005 (ip), vehicle: saline with Tween-80) 101 % of control and 109 % of control; under setting [1], 100 % of control and 101 % of control; under setting [2], 103 % of control and 108 % of control; under setting [3], 116 % of control.
As for `O=S(=O)(CI)OCCCl`, the T/C was 102 % of control under setting [11] and 110 % of control under setting [12].
Regarding `c1ccc([Si]2(c3ccccc3)O[Si](c3ccccc3)(c3ccccc3)O[Si](c3ccccc3)(c3ccccc3)O[Si](c3ccccc3)(c3ccccc3)O2)cc1`, the T/C runs as follows: (dose: 25.0 mg/kg/injection, schedule: Q01DX009 (ip), vehicle: saline with Tween-80) 95 % of control and 97 % of control; under setting [8], 100 % of control and 92 % of control and 93 % of control; under setting [9], 120 % of control and 94 % of control and 95 % of control; under setting [10], 90 % of control (2×) and 93 % of control.
For the compound `c1c[nH]cn1`, the T/C under setting [13] was 97 % of control.
Take `CNC(=O)OCc1c(COC(=O)NC)c(C(F)(F)F)n2c1CCC2`: the T/C reads like this: under setting [4], 117 % of control; under setting [5], 116 % of control.
For the compound `C=CC(C)(CCC=C(C)C)ON(CC)CC` (stereo not given), the T/C was 108 % of control (dose: 100.0 mg/kg/injection, schedule: Q04DX002 (ip), vehicle: saline with Tween-80); 113 % of control (dose: 200.0 mg/kg/injection, schedule: Q04DX002 (ip), vehicle: saline with Tween-80); 92 % of control (dose: 400.0 mg/kg/injection, schedule: Q04DX002 (ip), vehicle: saline with Tween-80).
Take `C/C(=C/OS(=O)(=O)C(F)(F)F)c1ccccc1`: the T/C is 105 % of control (dose: 50.0 mg/kg/injection, schedule: Q01DX009 (ip), vehicle: olive oil, sesame oil, peanut oil); 116 % of control (dose: 100.0 mg/kg/injection, schedule: Q01DX009 (ip), vehicle: olive oil, sesame oil, peanut oil); 87 % of control (dose: 200.0 mg/kg/injection, schedule: Q01DX009 (ip), vehicle: olive oil, sesame oil, peanut oil).

Values taken from PubChem BioAssay AID330 (DTP/NCI, 2004).
